Where two headings read alike, the source gives them in different places.
What was measured:
Human PPAR-γ2 = target: T1, Human PPAR-γ2 (Homo sapiens, UniProt P37231); assay: PPAR-gamma mediated transactivation of PPRE-luciferase reporter; type: cell-based
T1 construct: inserting the PPARγ2 cDNA coding region into pcDNA3.1+ vector; expressed in transfected cells; host or cells: HEK293 cells (ATCC)
T1 sequence (P37231 1-505): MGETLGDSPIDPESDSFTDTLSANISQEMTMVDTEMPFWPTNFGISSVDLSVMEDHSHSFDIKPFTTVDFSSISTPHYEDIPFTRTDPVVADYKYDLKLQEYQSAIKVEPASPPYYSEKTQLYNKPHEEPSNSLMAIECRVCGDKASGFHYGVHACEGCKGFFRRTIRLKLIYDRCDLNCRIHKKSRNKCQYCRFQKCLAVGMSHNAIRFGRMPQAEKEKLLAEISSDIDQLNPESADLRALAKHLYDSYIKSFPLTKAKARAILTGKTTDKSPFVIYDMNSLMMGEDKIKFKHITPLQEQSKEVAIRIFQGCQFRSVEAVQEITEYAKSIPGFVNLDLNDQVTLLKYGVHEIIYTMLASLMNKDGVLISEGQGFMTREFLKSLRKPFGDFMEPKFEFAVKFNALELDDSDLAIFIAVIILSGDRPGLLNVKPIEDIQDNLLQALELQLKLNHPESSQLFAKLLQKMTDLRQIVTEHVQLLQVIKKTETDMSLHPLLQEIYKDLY
Description: Human PPAR-γ2 expression vector was constructed by inserting PPAR-γ2 encoding region into pcDNA3.1+ vector (Invitrogen, Carlsbad, Calif.). Luciferase reporter vector was constructed by ligating PPRE response element adjacent to the upstream of Firefly luciferase coding region. Control vector, pRL-SV40 expressing Renilla luciferase was purchased from Promega (Madison, Wis.).
About 2.7×10^4 293 cells (ATCC, Manassas, Va.) were plated into a 35 mm culture well and maintained in Eagle's Minimal Essential Medium (ATCC, Manassas, Va.) supplemented with 10% heat inactivated horse serum (ATCC, Manassas, Va.) for 24 hours. Expression, reporter and control vectors (2.5 ng control and 100 ng others per culture well) were transfected by LI[…]™ Reagent (Invitrogen, Carlsbad, Calif.). Transfection reagent and DNA were prepared according to manufacture's recommendations and incubated with cells for 3 hours followed by adding equal volume EMEM supplemented with 20% horse serum. Twenty-four hours after transfection, cells were treated with vehicle or compounds at indicated final concentration for 24 hours. Final concentration of vehicle was 0.001% DMSO (Sigma, ST Louis, Mo.) in medium. Vehicle and compound treatment were all conducted in triplicate. Each culture well was then assayed for a response characterized by increased Firefly luciferase activity normalized with Renilla luciferase activity.
Assays for Firefly luciferase activity and Renilla luciferase activity followed the standard protocol of Dual-luciferase Reporter® Assay System (Promega, Madison, Wis.). Briefly, 400 μl Passive Lysis Buffer was added into each culture well and all wells were placed on a shaker for 15 minutes. Five μl cell lysate of each well was added to a reaction tube. Luciferase reagent II and Stop & Glo® were injected into the reaction tube sequentially by Sirius Luminometer (Berthold Detection Systems, Pforzheim, Germany). Final reporter activity was calculated as the ratio of Firefly luciferase activity over by Renilla luciferase activity.
Human PPARγ2 expression vector was constructed by inserting the PPARγ2 cDNA coding region into pcDNA3.1+ vector (Invitrogen, Carlsbad, Calif.). The PPRE-luciferase reporter gene was the kind gift of Dr. Kenneth Feingold. The control vector, pRL-SV40 containing the Renilla luciferase cDNA was purchased from Promega (Madison, Wis.). About 2.7×10^4 HEK293 human embryonal kidney cells (ATCC) were plated into a 35-mm tissue culture dish and maintained in Eagle Modified Essential Medium (EMEM, ATCC) containing 10% heat-inactivated horse serum for 24 h. Expression, reporter (100 ng/dish) and control (2.5 ng/dish) vectors were transfected using LI[…]™ Reagent (GibcoBRL) according to manufacturer's recommendation. At 24 h after transfection, cells were treated with vehicle (0.001% DMSO in medium) or compounds at the indicated concentration and incubated for 24 h. Each treatment was conducted in triplicate. Each culture dish was assayed for firefly luciferase activity normalized by Renilla luciferase activity to account for differences in transfection efficiency. Luciferase activity was measured using the Dual-luciferase Reporter® Assay System (Promega) and a Sirius luminometer (Berthold Detection System, Pforzheim, Germany).

PPAR-gamma = target: T2, PPAR-gamma (Homo sapiens, UniProt P37231); assay: Preliminary PPAR-gamma competition binding assays; conditions: data not shown
T2 sequence (P37231 1-505): T1 sequence (P37231 1-505)

TNF-alpha = assay: LPS-induced TNF-alpha production in RAW cells (ELISA); type: cell-based; conditions: RAW cells, 0.1, 1, 10, 50 or 100 pM, 1 hour preincubation, LPS 6 hours, FIG. 9
COX-2 = target: T3, COX-2 (Mus musculus, UniProt Q05769); assay: LPS-induced COX-2 activity in RAW cells (PGE2 production); type: cell-based; conditions: 0.1-100 μM, FIG. 12
T3 sequence (Q05769 18-604): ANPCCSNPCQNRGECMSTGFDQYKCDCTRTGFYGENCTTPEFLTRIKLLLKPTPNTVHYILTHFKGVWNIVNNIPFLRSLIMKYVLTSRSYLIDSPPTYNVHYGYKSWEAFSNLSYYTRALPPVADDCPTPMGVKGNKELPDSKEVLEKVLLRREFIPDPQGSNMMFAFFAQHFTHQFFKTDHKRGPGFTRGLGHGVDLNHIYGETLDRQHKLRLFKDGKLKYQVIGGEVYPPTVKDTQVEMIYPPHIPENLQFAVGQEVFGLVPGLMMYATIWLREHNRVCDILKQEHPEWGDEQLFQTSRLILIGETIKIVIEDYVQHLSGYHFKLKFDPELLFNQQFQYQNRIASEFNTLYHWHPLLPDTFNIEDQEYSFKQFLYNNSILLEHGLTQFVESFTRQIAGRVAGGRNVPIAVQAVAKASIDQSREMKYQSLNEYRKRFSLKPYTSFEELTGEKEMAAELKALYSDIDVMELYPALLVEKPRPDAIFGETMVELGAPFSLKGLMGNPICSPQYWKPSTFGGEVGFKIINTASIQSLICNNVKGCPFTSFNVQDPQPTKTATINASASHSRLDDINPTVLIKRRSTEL
Description: After 1 hour LPS (0.1 pg/mL) was added and cells were incubated an additional 6 hours. Cell supernatant was then collected, aliquoted and frozen at −70° C., and aliquots used to determine COX-2 and COX-1 activity. Compound 11, but not rosiglitazone, inhibited the activity of COX-2 (as measured by PGE2 production in a 50 μl sample).

COC(=O)C(=Cc1cc(OC)cc(OC)c1)c1ccc(Oc2ccc(CC3SC(=O)NC3=O)cc2)cc1 (stereo not shown) [Compound 11, 3-(3,5-Dimethoxyphenyl)-2-{4-[4-(2,4-dioxothiazolidin-5-ylmethyl)-phenoxy]-phenyl}-acrylic acid methyl ester]
blood glucose level (db/db mice; db/db male mice, oral 50 mg/kg, 15 days, FIG. 1A): substantial reduction | decrease in blood glucose levels (db/db mice; db/db mice, 50 mg/kg oral once daily, 8 to 9 days, FIG. 21): 32 % vs. baseline | blood glucose lowering effect (db/db mice; db/db mice, 50 mg/kg/day orally, 14 days, FIG. 16A): dramatic, comparable blood glucose lowering effects | drop in triglyceride levels (db/db mice; db/db mice, after 15 days of treatment, FIG. 5A): 24% | drop in FFA levels (db/db mice; db/db mice, after 15 days of treatment, FIG. 5B): 34% | drop in the GHb level (db/db mice; db/db mice, after 15 days of treatment, FIG. 5C): 0.7% | increase in the serum leptin level compared to the control group (db/db mice; db/db mice, after 15 days of treatment, FIG. 5D): 23 °/a | glucose lowering effect, maximal at 24 hrs (db/db mice; db/db mice, single oral dose 50 mg/kg, at 24 hrs): 23 % of 0 min | duration of effect on blood glucose (db/db mice; db/db mice, single oral dose, FIG. 4): ≥ 24 h | transactivation potency less than that of rosiglitazone (Human PPAR-γ2): ≤ 30 fold | EC50 (Human PPAR-γ2; HEK293 cells, human PPAR-gamma2, ± SE, n=5, FIG. 24, read-out: EC50 for transactivation of PPRE-Luc reporter): 0.284 ± 0.036 µM | EC50 (Human PPAR-γ2; cells transfected with human PPAR-gamma2, 24 hours, non-linear regression, read-out: EC50, induction of PPAR-γ mediated luciferase activity): 0.28 µM | PPAR-gamma transactivation potency relative to a comparator, in words (Human PPAR-γ2; in vitro transactivation assay): approximately one-thirtieth the activity of rosiglitazone | affinity (Ki) of PPAR-gamma, less than for rosiglitazone (PPAR-gamma): 6.5 fold | inhibition of LPS-induced TNF-alpha production (TNF-alpha): better inhibitor of TNF-alpha than rosiglitazone | inhibition of COX-2 activity (PGE2 production) (COX-2): inhibited

Reference: patent US20060235062A1, “Novel heterocyclic analogs of diphenylethylene compounds” (THERACOS, INC., priority 2002, published 2006)
